The values below are quoted from earlier work in patent US7988998B2, “Sustained-release tramadol formulations with 24-hour efficacy” (Labopharm Inc., priority 2002, dated 2011).

Where a name gives a salt, the structure may show the parent alone.

The conditions of the series: patients receiving tramadol HCl.

Regarding `COc1cccc(C2(O)CCCCC2CN(C)C)c1` (stereo not shown) [tramadol HCl, Tramadol hydrochloride], the “estimated incidence of seizures” value is “less than 1%”.
